The test system of this test is PD-1-overexpressing Jurkat cells. Kind of test: Small molecule screen: IL2 secretion (AlphaLISA) from stimulated PD-1-overexpressing Jurkat cells. The format is cell-based, human. The note with it: 3.3 μM compound; for Zscore_1 / Zscore_2: IL2 level, α-CD3/α-CD28/α-PD-1 beads; for Zscore_1: replicate 1; for Zscore_2: replicate 2; for Zscore_AVG: average of replicate Z scores. Summed up: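 Cells (100,000/well) with compound at 3.3 μM final, stimulated by α-CD3/α-CD28/α-PD-1 Dynabeads at an 8:1 bead:cell ratio. IL2 in supernatants measured by AlphaLISA. Hits scored ≥3 SD from the mean of DMSO-treated, α-PD-1-bead-stimulated controls.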
(In general: Bead proximity is the source of the signal in Alpha formats.)

With `COC(=O)[C@@]1(O)C[C@H]2O[C@]1(C)n1c3ccccc3c3c4c(c5c6ccccc6n2c5c31)C(=O)NC4` [K-252a, Nocardiopsis sp.], the Zscore_1 was −4.42, the Zscore_2 was −6.58 and the Zscore_AVG is recorded as −5.5.

Regarding `CN([C@@H](Cc1ccc(OS(=O)(=O)c2cccc3cnccc23)cc1)C(=O)N1CCN(c2ccccc2)CC1)S(=O)(=O)c1cccc2cnccc12` [KN-62], the Zscore_1 is reported as −0.2488, the Zscore_2 is given as −0.8434 and the Zscore_AVG is given as −0.5461.

`COc1ccc(S(=O)(=O)Nc2ccccc2CN(C)C/C=C/c2ccc(Cl)cc2)cc1` [KN-92]: the Zscore_1 was determined as 0.5356, the Zscore_2 is 0.3912 and the Zscore_AVG was 0.4634.

For `COc1ccc(S(=O)(=O)N(CCO)c2ccccc2CN(C)C/C=C/c2ccc(Cl)cc2)cc1` [KN-93], the Zscore_1 is −0.2896, the Zscore_2 is −2.889 and the Zscore_AVG is given as −1.589.

In turn, `CCCCCCOC(=O)[C@]1(O)C[C@@H]2O[C@@]1(C)n1c3ccccc3c3c4c(c5c6ccccc6n2c5c31)C(=O)NC4` [KT5720] registered a Zscore_1 of 10.81, a Zscore_2 of 13.17 and a Zscore_AVG of 11.99.

For the molecule `O=C1Cc2c([nH]c3ccc(Br)cc23)-c2ccccc2N1` [Kenpaullone], the Zscore_1 is on record as −0.7695, the Zscore_2 is given as −1.747 and the Zscore_AVG is recorded as −1.258.

`Nc1ccc(-c2cccc3c(=O)cc(N4CCOCC4)oc23)cc1` [LY 294002,4-NH2] returned a Zscore_1 of 3.33, a Zscore_2 of 7.54 and a Zscore_AVG of 5.435.

As to `O=c1cc(N2CCOCC2)oc2c(-c3ccccc3)cccc12` [LY 294002], the Zscore_1 is reported as −1.451, the Zscore_2 is listed as 0.6923 and the Zscore_AVG is −0.3791.

With `O=c1cc(N2CCNCC2)oc2c(-c3ccccc3)cccc12` [LY 303511], the Zscore_1 worked out at 1.21, the Zscore_2 is listed as −0.8685 and the Zscore_AVG came out at 0.1705.

With `Nc1ncnc2c1c(-c1ccc(Oc3ccccc3)cc1)cn2C1CCCC1` [Lck Inhibitor], the Zscore_1 is listed as −8.467, the Zscore_2 is −8.924 and the Zscore_AVG is listed as −8.695.

Turning to `N#C/C(=C(/N)Sc1ccc(N)cc1)c1ccccc1C(F)(F)F` [MEK 1/2 Inhibitor], the Zscore_1 is reported as −4.769, the Zscore_2 was −6.395 and the Zscore_AVG is recorded as −5.582.

Turning to `O=C1C(Cl)=C(N2C(=O)CCC2=O)C(=O)c2ccccc21` [MEK Inhibitor II], the Zscore_1 is on record as −2.22, the Zscore_2 was −1.364 and the Zscore_AVG is given as −1.792.

Take `N#C/C(=C(/N)Sc1ccccc1N)c1cccc(C(O)c2ccncc2)c1` (stereo not drawn) [MEK Inhibitor I]: the Zscore_1 is on record as −4.599, the Zscore_2 was −4.873 and the Zscore_AVG was −4.736.

For the molecule `O=C(CCCc1ccc(-c2ccccc2F)cc1)Nc1ccc(O)cc1` [MK2a Inhibitor], the Zscore_1 was −1.455, the Zscore_2 is recorded as −2.305 and the Zscore_AVG was −1.88.

`O=C1NCCc2[nH]c(-c3ccnc(-c4cnc5ccccc5c4)c3)cc21` [MK-2 Inhibitor III]: the Zscore_1 is given as −4.419, the Zscore_2 is −7.061 and the Zscore_AVG is −5.74.

As for `Cl.O=S(=O)(c1cccc2c(I)cccc12)N1CCCNCC1` [ML-7, Hydrochloride], the Zscore_1 amounted to 2.906, the Zscore_2 is 0.08811 and the Zscore_AVG is listed as 1.497.

For the molecule `Nc1ncnc2n[nH]c(Nc3ccc(F)cc3)c12` [MNK1 Inhibitor], the Zscore_1 is on record as −2.022, the Zscore_2 is listed as −0.3911 and the Zscore_AVG is −1.206.

Take `CN1C(=O)C(Cc2c[nH]c3ccccc23)NC1=S` (stereo not drawn) [Necrostatin-1]: the Zscore_1 was −1.566, the Zscore_2 came to 1.447 and the Zscore_AVG is −0.05934.

The molecule `CC[C@H](CO)Nc1nc(NCc2ccccc2O)c2ncn(C(C)C)c2n1` [Olomoucine II] showed a Zscore_1 of 0.3445, a Zscore_2 of 2.103 and a Zscore_AVG of 1.224.

For `COc1cccc(-c2cc(=O)c3ccccc3o2)c1N` [PD98059], the Zscore_1 is recorded as −1.781, the Zscore_2 is given as −1.614 and the Zscore_AVG was −1.698.

As for `CNc1cc2c(Nc3cccc(Br)c3)ncnc2cn1` [PD 158780], the Zscore_1 stood at 0.3787, the Zscore_2 was 0.8816 and the Zscore_AVG turned out to be 0.6302.

For `O=[N+]([O-])c1ccc(-c2nc(-c3ccc(F)cc3)c(-c3ccncc3)[nH]2)cc1` [PD 169316], the Zscore_1 was −0.1697, the Zscore_2 is reported as 0.08497 and the Zscore_AVG is on record as −0.04235.

`CCC(=O)Nc1ccc2ncnc(Nc3cccc(Br)c3)c2c1` [PD 174265]: the Zscore_1 is −0.1183, the Zscore_2 came out at 0.5895 and the Zscore_AVG came to 0.2356.

For `COc1cc2nccc(Oc3ccc(NC(=S)NC(=O)c4ccccc4C)cc3)c2cc1OC` [PDGF RTK Inhibitor], the Zscore_1 was −3.239, the Zscore_2 was −6.099 and the Zscore_AVG is on record as −4.669.

`COc1cc2ncnc(N3CCN(C(=O)Nc4ccc(Oc5ccccc5)cc4)CC3)c2cc1OC` [PDGF Receptor Tyrosine Kinase Inhibitor III]: the Zscore_1 is 1.681, the Zscore_2 worked out at 3.032 and the Zscore_AVG amounted to 2.357.

With `CCCC(=O)Oc1ccc2[nH]c(C(=O)c3cc4ccccc4[nH]3)cc2c1` [PDGF Receptor Tyrosine Kinase Inhibitor II], the Zscore_1 is listed as −0.7009, the Zscore_2 worked out at 0.7754 and the Zscore_AVG amounted to 0.03721.

`COc1cc2c(cc1OC)-c1[nH]nc(Nc3cccc(F)c3)c1C2` [PDGF Receptor Tyrosine Kinase Inhibitor IV]: the Zscore_1 was −0.8894, the Zscore_2 is −1.508 and the Zscore_AVG is listed as −1.199.

As for `O=C1NC(=O)/C(=C/c2ccc3nccnc3c2)S1` [PI 3-Kg Inhibitor], the Zscore_1 is reported as 0.8957, the Zscore_2 was determined as 2.23 and the Zscore_AVG stood at 1.563.

On to `Oc1cccc(-c2nc(N3CCOCC3)c3sccc3n2)c1` [PI 3-Kα Inhibitor IV], for which the Zscore_1 worked out at 1.287, the Zscore_2 is 0.7223 and the Zscore_AVG is 1.005.

Take `Cc1ccc([N+](=O)[O-])cc1S(=O)(=O)N(C)/N=C/c1cnc2ccc(Br)cn12.Cl` [PI 3-Kα Inhibitor VIII]: the Zscore_1 is given as −7.658, the Zscore_2 is −10.33 and the Zscore_AVG is −8.993.

In turn, `Cc1cc(C(C)Nc2ccccc2)c2nc(N3CCOCC3)cc(=O)n2c1` (stereo not drawn) [PI 3-Kβ Inhibitor VI, TGX-221] had a Zscore_1 of 2.504, a Zscore_2 of 2.528 and a Zscore_AVG of 2.516.

Turning to `Oc1cccc(-c2nc(N3CCOCC3)c3oc4ncccc4c3n2)c1` [PI-103], the Zscore_1 is recorded as −0.718, the Zscore_2 came to 0.8433 and the Zscore_AVG is listed as 0.06265.

As for `CCCOc1ccc(/C=C2/SC(=O)NC2=O)cc1` [PIM1/2 Kinase Inhibitor VI], the Zscore_1 is recorded as −0.7695, the Zscore_2 is −1.561 and the Zscore_AVG is on record as −1.165.

`O=C1NC(=O)C(c2cn(CCCn3ccnc3)c3ccccc23)=C1Nc1ccccc1` [PKCb Inhibitor]: the Zscore_1 is −3.512, the Zscore_2 is −5.04 and the Zscore_AVG is −4.276.

Regarding `O=C1NC(=O)c2cc(Nc3ccc(F)cc3)c(Nc3ccc(F)cc3)cc21` [PKCbII/EGFR Inhibitor], the Zscore_1 is given as −0.838, the Zscore_2 was 0.616 and the Zscore_AVG is −0.111.

For the molecule `O=C1Nc2ccc(Cl)cc2/C1=C/c1cc(Cl)c(O)c(Cl)c1` [PKR Inhibitor, Negative Control], the Zscore_1 was −1.427, the Zscore_2 was −0.4334 and the Zscore_AVG is on record as −0.9301.

Take `O=C1Nc2ccc3ncsc3c2/C1=C/c1cnc[nH]1` [PKR Inhibitor]: the Zscore_1 is −7.658, the Zscore_2 is recorded as −8.086 and the Zscore_AVG is on record as −7.872.

Regarding `CC(C)(C)n1nc(Cc2cccc3ccccc23)c2c(N)ncnc21` [PP1 Analog II, 1NM-PP1], the Zscore_1 is on record as −0.9751, the Zscore_2 is on record as 0.08497 and the Zscore_AVG was −0.4451.

In turn, `Nc1ncnc2c1cnn2-c1ccccc1` [PP3] registered a Zscore_1 of 0.2416, a Zscore_2 of 0.9081 and a Zscore_AVG of 0.5749.

In the case of `N#Cc1cc([N+](=O)[O-])c2sc(C(N)=O)[n+]([O-])c2c1` [Polo-like Kinase Inhibitor II, BTO-1], the Zscore_1 is reported as −1.795, the Zscore_2 was −0.518 and the Zscore_AVG is reported as −1.156.

For `CC(C)[C@H](CO)Nc1nc(Nc2cccc(Cl)c2)c2ncn(C(C)C)c2n1` [Purvalanol A], the Zscore_1 is −3.126, the Zscore_2 is 0.37 and the Zscore_AVG is listed as −1.378.

Take `O=c1c(O)c(-c2ccc(O)c(O)c2)oc2cc(O)c(O)c(O)c12` [Quercetagetin]: the Zscore_1 was −1.427, the Zscore_2 is −1.66 and the Zscore_AVG is on record as −1.543.

Values taken from US11865176B2, “Compositions and methods of modulating anti-tumor immunity” (Dana-Farber Cancer Institute, Inc., priority 2016, dated 2024).
